Reference: patent publication EP0384722A1, “Chemical compositions” (PITMAN-MOORE LIMITED, priority 1989, dated 1990)
Read-outs that look alike come from different tables or passages of the source.

Legend:
[1] = Comparison of bioavailability of Compound A and Trimethoprim (TMP) administered by i/v injection, dogs; format: in vivo; conditions: beagle, intravenous, serum, i/v injection at 2 mg/kg; for concentration at 0 h: 0 hours post inj.; for concentration at 0 h / concentration at 1 h / concentration at 3 h / concentration at 5 h / concentration at 7 h / concentration at 24 h / concentration at 30 h / concentration at 48 h: read-out: Serum conc. of TMP; for concentration at 1 h: 1 hours post inj.; for concentration at 3 h: 3 hours post inj.; for concentration at 5 h: 5 hours post inj.; for concentration at 7 h: 7 hours post inj.; for concentration at 24 h: 24 hours post inj.; for concentration at 30 h: 30 hours post inj.; for concentration at 48 h: 48 hours post inj.
Description: One male beagle dog, 13.5 kg and one female beagle, 11.1kg, both aged about 18 months, received i/v injections (cephalic vein) of the test compounds at 2mg base/kg, using 15mg base /ml aqueous solutions.

[2] = Comparison of bioavailability of Compound A and Trimethoprim (TMP) administered by i/v injection, cats; format: in vivo; conditions: serum, i/v injection at 2 mg/kg; for concentration at 0 h / concentration at 1 h / concentration at 3 h / concentration at 5 h / concentration at 7 h / concentration at 24 h: 2 mg/kg, read-out: Serum conc. of TMP; for concentration at 0 h: 0 hours post inj.; for concentration at 1 h: 1 hours post inj.; for concentration at 3 h: 3 hours post inj.; for concentration at 5 h: 5 hours post inj.; for concentration at 7 h: 7 hours post inj.; for concentration at 24 h: 24 hours post inj.
Description: Two young adult female cats, bodyweight around 3 kg, were given i/v injections at 2 mg/kg of TMP or Compound A, using 3 mg/base ml aqueous solutions.

[3] = female, cat, intravenous, cat 1
[4] = female, cat, intravenous, cat 2

For `COc1cc(Cc2cnc(N)nc2N)cc(OC)c1OC` [TMP, trimethoprim], the half-life ([1]; both sexes, dog, dogs, read-out: Est.t1/2 (converted)) was 156 min, the concentration at 0 h ([1]; female, dog F) was 0 µg/mL and the concentration at 1 h ([1]; female, dog F) was 1.2 µg/mL. It also gave a concentration at 3 h ([1]; female, dog F) of 0.74 µg/mL, a concentration at 5 h ([1]; female, dog F) of 0.31 µg/mL and a concentration at 7 h ([1]; female, dog F) of 0.21 µg/mL. For the same compound, the concentration at 24 h ([1]; female, dog F) was 0 µg/mL, the concentration at 30 h ([1]; female, dog F) was 0 µg/mL and the concentration at 48 h ([1]; female, dog F) was 0 µg/mL. It also gave a concentration at 0 h ([1]; male, dog M) of 0 µg/mL, a concentration at 1 h ([1]; male, dog M) of 1.1 µg/mL and a concentration at 3 h ([1]; male, dog M) of 0.8 µg/mL. For the same compound, the concentration at 5 h ([1]; male, dog M) was 0.4 µg/mL, the concentration at 7 h ([1]; male, dog M) was 0.26 µg/mL and the concentration at 24 h ([1]; male, dog M) was 0 µg/mL. The concentration at 30 h ([1]; male, dog M) was 0 µg/mL, the concentration at 48 h ([1]; male, dog M) was 0 µg/mL and the “Est.t1/2” value ([2]; cats) was 45 min. For the same compound, the half-life ([2]; female, cat, intravenous, cats, read-out: Est.t1/2 (converted)) was 45 min, the concentration at 0 h [2, 3] was 0 µg/mL and the concentration at 1 h [2, 3] was 0.46 µg/mL. The concentration at 3 h [2, 3] was 0.06 µg/mL, the concentration at 5 h [2, 3] was 0 µg/mL and the concentration at 7 h [2, 3] was 0 µg/mL. For the same compound, the concentration at 24 h [2, 3] was 0 µg/mL, the concentration at 0 h [2, 4] was 0 µg/mL and the concentration at 1 h [2, 4] was 0.44 µg/mL. The concentration at 3 h [2, 4] was 0.084 µg/mL, the concentration at 5 h [2, 4] was 0 µg/mL and the concentration at 7 h [2, 4] was 0 µg/mL. It also gave a concentration at 24 h [2, 4] of 0 µg/mL.
